Test in all cases: drug sensitivity score (DSS2, normalised partial AUC of dose-response, 72 h CellTiter-Glo viability) (DSS (dimensionless)); higher = more sensitive (stronger growth inhibition / cytotoxicity); extreme values may be limits of the assay
In experiment [1] the test system is CAF#3 (primary prostate cancer-associated fibroblasts of myCAF-like type). The method, boiled down: (§1)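 Low-passage primary prostate cancer-associated fibroblasts, PF179T, WPMY-1, LNCaP and 22Rv1 cells were seeded into 384-well plates carrying pre-dispensed compounds at five doses covering a 10,000-fold range. After 72 h, viability was read by CellTiter-Glo 2.0 luminescence. Responses were scaled to vehicle and positive-control wells. The drug sensitivity score (DSS2) is a partial area under the fitted logistic dose–response curve divided by the log of its upper asymptote, computed in BREEZE; higher means more sensitive.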

The subject of experiment [2] is PF179T. The method, boiled down: as §1
For experiment [3], the system named is CAF#6 (primary prostate cancer-associated fibroblasts of iCAF-like type). The essentials: as §1
In experiment [4] the test system is CAF#2 (primary prostate cancer-associated fibroblasts of iCAF-like type). The essentials:
as §1

In experiment [5] the test system is LNCAP. The method, boiled down:
as §1

In experiment [6] the test system is CAF#4 (primary prostate cancer-associated fibroblasts of iCAF-like type). The essentials: as §1
The test system of experiment [7] is 22Rv1. The essentials: as §1
Experiment [8] deals with CAF#5 (primary prostate cancer-associated fibroblasts of myCAF-like type). The essentials: as §1
The test system of experiment [9] is CAF#7 (primary prostate cancer-associated fibroblasts of myCAF-like type). The essentials:
as §1

For experiment [10], the system named is CAF#1 (primary prostate cancer-associated fibroblasts of myCAF-like type). The essentials: as §1
Experiment [11] has as its system WPMY-1. The essentials:
as §1

Each structure is given as a SMILES string.

Turning to `O=C(Nc1cc(Cl)cc2c1[nH]c1cnccc12)c1cccnc1` [PS-1145] (tested concentration range 2.5-25000 nM), the drug sensitivity score amounted to 1.3 in experiment [1]; 3.5 in experiment [2]; 0.1 in [3]; 4.1 in [4]; 0 in experiment [5]; 0 in [6]. Besides, the drug sensitivity score came out at 0 in experiment [7]; 2.5 in experiment [8]; 0 in experiment [9]; 3.1 in [10]; 0.1 in experiment [11].
As for `CC(=O)O[C@H]1C(=O)[C@@]2(C)[C@H]([C@H](OC(=O)c3ccccc3)[C@]3(O)C[C@H](OC(=O)[C@H](O)[C@@H](NC(=O)c4ccccc4)c4ccccc4)C(C)=C1C3(C)C)[C@]1(OC(C)=O)CO[C@@H]1C[C@@H]2O` [Paclitaxel] (tested concentration range 0.1-1000 nM), the drug sensitivity score in experiment [1] came to 10.8; in [2], 18.2; in experiment [3], 15.3; in [4], 16.8; in [5], 31.3; in experiment [6], 8.8. The drug sensitivity score in experiment [7] was 22.4; in experiment [8], 15.4; in [9] it was 24.2; in experiment [10] it was 14.8; in experiment [11] it was 26.4.
Take `C1=N/C2=N/c3ccc(OCCN4CCCC4)c(c3)COC/C=C/COCc3cccc(c3)C(=C1)N2` [Pacritinib] (tested concentration range 1-10000 nM): the drug sensitivity score in experiment [1] was determined as 9.4; in [2], 4.5; in experiment [3], 8.2; in [4], 7.8; in [5], 8.4; in experiment [6] it was 6.1. Moreover, the drug sensitivity score in experiment [7] was found to be 8.6; in experiment [8] it was 7.3; in experiment [9] it was 8.1; in [10], 6.7; in experiment [11], 10.5.
For the compound `CC(=O)c1c(C)c2cnc(Nc3ccc(N4CCNCC4)cn3)nc2n(C2CCCC2)c1=O` [Palbociclib] (tested concentration range 1-10000 nM), the drug sensitivity score turned out to be 0 in [1]; 5.1 in experiment [2]; 1.4 in [3]; 7.4 in experiment [4]; 7.7 in [5]; 3.3 in [6]. Further, the drug sensitivity score in experiment [7] was determined as 7.9; in experiment [8] it was 4.9; in experiment [9], 2; in experiment [10] it was 2.5; in experiment [11] it was 2.1.
In the case of `Cc1[nH]c2ccccc2c1CCNCc1ccc(/C=C/C(=O)NO)cc1` [Panobinostat] (tested concentration range 0.1-1000 nM), the drug sensitivity score in experiment [1] was determined as 7.7; in [2], 10.9; in [3], 9.3; in experiment [4] it was 11.4; in experiment [5] it was 23.1; in experiment [6], 8. For the same compound, the drug sensitivity score in experiment [7] came out at 23.2; in [8], 10.4; in experiment [9] it was 7.9; in experiment [10], 11.3; in [11], 22.9.
For the compound `Cc1ccc(Nc2nccc(N(C)c3ccc4c(C)n(C)nc4c3)n2)cc1S(N)(=O)=O` [Pazopanib] (tested concentration range 1-10000 nM), the drug sensitivity score in experiment [1] worked out at 4; in experiment [2], 5; in experiment [3] it was 1.1; in experiment [4], 6.7; in experiment [5], 4.1; in [6], 5.4. The drug sensitivity score in experiment [7] amounted to 0; in experiment [8] it was 3.7; in experiment [9], 5.1; in experiment [10], 3.6; in [11], 0.2.
Take `Nc1nc2[nH]cc(CCc3ccc(C(=O)N[C@@H](CCC(=O)O)C(=O)O)cc3)c2c(=O)[nH]1` [Pemetrexed] (tested concentration range 1-10000 nM): the drug sensitivity score in experiment [1] was found to be 0.5; in experiment [2] it was 0.1; in experiment [3], 0; in [4], 0; in [5], 9.4; in experiment [6], 0. Moreover, the drug sensitivity score was 0 in experiment [7]; 0 in [8]; 0 in experiment [9]; 1.2 in experiment [10]; 13.5 in [11].
Take `OC[C@H]1O[C@@H](n2cnc3c2N=CNC[C@H]3O)C[C@@H]1O` [Pentostatin] (tested concentration range 1-10000 nM): the drug sensitivity score in experiment [1], in experiment [2], in experiment [3], in experiment [4], in experiment [5] and in experiment [6] was 0 throughout. For the same compound, the drug sensitivity score in [7], in [8], in experiment [9], in experiment [10] and in experiment [11] was 0 in each case.
On to `NS(=O)(=O)OC[C@@H]1C[C@@H](n2ccc3c(N[C@H]4CCc5ccccc54)ncnc32)C[C@@H]1O` [Pevonedistat] (tested concentration range 1-10000 nM), for which the drug sensitivity score in experiment [1] amounted to 0; in [2] it was 6.4; in [3] it was 5.7; in experiment [4], 13; in [5], 29.6; in experiment [6], 7. In addition, the drug sensitivity score is 18.9 in experiment [7]; 9 in experiment [8]; 5 in experiment [9]; 4.4 in experiment [10]; 12.6 in experiment [11].
`FC(F)(F)c1ccc(CNc2ccc(Cc3c[nH]c4ncc(Cl)cc34)cn2)cn1` [Pexidartinib] (tested concentration range 1-10000 nM): the drug sensitivity score in experiment [1] was 1.2; in experiment [2] it was 1.7; in [3], 0; in experiment [4], 5.9; in [5] it was 1.4; in experiment [6], 3. The drug sensitivity score is 0 in experiment [7]; 5.1 in experiment [8]; 2.7 in experiment [9]; 4.8 in experiment [10]; 0.6 in experiment [11].
On to `CS(=O)(=O)N1CCN(Cc2cc3nc(-c4cccc5[nH]ncc45)nc(N4CCOCC4)c3s2)CC1` [Pictilisib] (tested concentration range 1-10000 nM), for which the drug sensitivity score is 10.9 in experiment [1]; 11.2 in experiment [2]; 7.7 in [3]; 11.5 in [4]; 13.7 in experiment [5]; 10.9 in [6]. Also, the drug sensitivity score worked out at 16.1 in experiment [7]; 12 in experiment [8]; 9.3 in experiment [9]; 11.7 in experiment [10]; 12 in experiment [11].
With `CC[C@@H]1C(=O)OC[C@@H]1Cc1cncn1C` [Pilocarpine] (tested concentration range 4-40000 nM), the drug sensitivity score in [1], in experiment [2], in [3], in experiment [4], in [5] and in experiment [6] was 0 each time. The drug sensitivity score worked out at 0 in [7]; 1.5 in [8]; 0 in experiment [9]; 0.8 in experiment [10]; 0 in experiment [11].

(Values after the supplement of paper PMC12592484.)
